Assay [1] deals with T1, HLA-A*0201/peptide complex (Homo sapiens, UniProt P04439, D140Y/D185E/D98H/E176V/E277Q/G131W/G231S/I119V/I121R/I166T/I218V/L300P/L318F/N151K/N90K/P208A/P217A/Q86G/Q94H/R138H/R169H/T345S).
T1 construct: Tap−/− cells expressing the studied HLA-class I molecule; endogenous in cells; host or cells: T2 cells (Tap-/-, HLA-A*0201)
Description: Assessment of peptide/HLA class I complex stability (DC50). It counts as binding. The conditions noted are these: half life (DC50) of the HLA-A*0201/peptide complex. Here is the method:
Assessment of Peptide/HLA class I Complex Stability. Tap−/− cells (10^6/mL) were incubated overnight with 100 μM of each peptide in serum-free RPMI 1640 medium supplemented with 100 ng/mL of […] at 37° C. Cells were then washed four times to remove free peptide, incubated with Brefeldin A (10 μg/mL) for 1 hour to block cell surface expression of newly synthesized HLA molecules, washed and incubated at 37° C. for 0, 2, 4 or 6 hours. Subsequently, cells were stained with the HLA specific mAb followed by FITC conjugated goat anti mouse Ig mAb. For each time point, peptide induced HLA expression was calculated as: Mean fluorescence of peptide preincubated cells—Mean fluorescence of cells treated in similar conditions in the absence of peptide. DC50 (dissociation complex; DC) was defined as the time required for the loss of 50% of the HLA-A*0201/peptide complexes stabilized at t=0.
The affinity of each peptide was assayed experimentally by determination of the Relative Affinity: the necessary peptide dose to stabilise a reference quantity of HLA-A*0201 molecules at the surface of T2 cells; and the stability of each peptide was assayed by determination of the half-life of the peptide/HLA-A*0201 molecule complex (DC50: dissociation complex 50).

The test system of another assay is human CD8+ cells. Description: Generation of CTL from human PBMC with peptide- or polyepitope-pulsed dendritic cells, intracellular IFN-γ staining. It counts as cell-based. The conditions noted are these: CD8+ cells stimulated with peptide-loaded dendritic cells. As for the experimental part: The three graphs entitled hCTL380, hCTL391 and hCTL393 represent respectively the testing of p380, p391 and p393-specific human CTLs. P391 and p393 specific CTLs were tested towards EBV-B cells, whereas p380 specific CTLs were tested towards T2 cells. The number of IFN-γ producing CD8+ cells for 10^5 CD8+ cells upon activation, indicated on the X-axis, was measured, as assessed by staining cells for CD8 and intracellular IFN-γ.
Polyepitope induced human CTL were tested for their capacity to respond to T2 cells loaded with p380, p391 or p393 or the irrelevant HIVpol589 peptides in intracellular IFN-γ staining. The X axis represents the number of IFNγ-producing CTL/10^5 CD8+ cells. On the Y axis, upper to lower bars represent the results obtained when cells were loaded respectively with irrelevant HIV pol589 peptides, or with p380, p391 or p393 peptides.
Generation of CTL from Human Peripheral Blood Mononuclear Cells (PBMC). Fresh PBMC collected from healthy donnors under informed consent were serologically typed for the studied HLA-class I molecule, and purified using standard Ficoll-Paque (Amersham Pharmacia Biotech AB). Dendritic cells (DC) were prepared by cultivating plastic adherent PBMC in the presence of 500 U/mL GM-CSF (R&D Systems Inc. MN) and 500 U/mL IL-4 (R&D Systems Inc. MN) for 7 days such as described in Keogh et al. (30).
DC were then maturated for 2 days with 2 μg/mL anti-CD40 antibody and 100 ng/mL Poly I:C (Sigma-Aldrich). […] Autologous CD8+ purified T-cells (CD8 MicroBeads, Miltneyi Biotec Inc. CA) were stimulated weekly with DC pulsed for two hours with peptide (10 μM) and irradiated at 35Gy at a T:DC ratio of 10:1 in culture medium (CM; RPMI 1640 supplemented with 10% human AB serum, […] L-glutamine and gentamycin). 1×10^3 U/mL IL-6 and SU/mL IL-12 (R&D Systems Inc. MN) were added during the first week of culture. 20 U/mL clinical grade IL-2 (Proleukin, Chiron Corp.) and 10 ng/mL IL-7 (R&D Systems Inc. MN) were added during the next two weeks of culture. 7 days after the last stimulation with DC, peptide specific IFN-γ secreting CD8+ T cells were magnetically sorted following encounter of the peptide presented by HLA-A*0201+ B-EBV cells (IFN-γ Secretion Assay, Miltenyi Biotec Inc. CA). The characterization of peptide-specific T cells was tested 7 days after the purification step.
Intracellular IFN-g Staining. 5×10^4 T cells were incubated with 10^5 stimulating peptide loaded EBV-B cells or with 10^5 tumor cells in the presence of 20 μg/ml brefeldin-A (Sigma, Oakville, Canada). Six hours later, they were washed, stained with r-phycoerythrin-conjugated anti-CD8 antibody (Caltag Laboratories, Burlingame, Calif.) in PBS for 25 min at 4° C., washed and fixed with 4% PFA. Then, cells were permeabilized with PBS 0.5% BSA 0.2% saponin (Sigma, Oakville, Canada), and stained with allophycocyanin-conjugated anti-IFNg mAb (PharMingen, Mississauga, Canada) for 25 min at 4° C. Cells were analyzed on FACSCalibur (Becton Dickinson, Mountain View, Calif.).

Take LLLLDVAPL [HSP 391]: the “Stability (hrs)” value in assay [1] is over 6 h hrs. In addition, the “induction of specific human CTL” value with human CD8+ cells is reported as “capable of stimulating specific human CTL”.

In the case of LMGDKSENV [HSP 380], in assay [1], the “Stability (hrs)” value worked out at 4 h hrs. In addition, the “induction of specific human CTL” value in the assay on human CD8+ cells is “capable of stimulating specific human CTL”.

Consider YLGYPVTNAV [HSP 134(10)], for which the “induction of specific human CTL” value in the assay on human CD8+ cells is reported as “capable of stimulating specific human CTL”.
